The source of these data is paper PMC8000840, “Novel IMB16-4 Compound Loaded into Silica Nanoparticles Exhibits Enhanced Oral Bioavailability and Increased Anti-Liver Fibrosis In Vitro” (Molecules, 2021).

In brackets after ≈: the same amount, converted by molar mass.

The nature of data set [1]: In vitro dissolution, USP II paddle method. The class given is physicochemical. As to conditions: release medium, 12 h, 37 °C, 3% SDS. The procedure:
Dissolution studies were conducted using a USP II paddle method (100 rpm, 37 °C, and 900 mL dissolution medium) with a dissolution tester (ZRS-8LD, China). The release of IMB16-4 and IMB16-4-MSNs was performed in pH 1.0 hydrochloric acid solution and pH 6.8 phosphate buffer solutions, containing 3% (w/v) SDS, respectively. All release studies were carried out in triplicate. At predetermined time intervals, 5 mL of sample solution was withdrawn from the release medium and filtered using a 0.22 μm membrane filter before running the HPLC analysis. An equivalent amount of fresh medium was added to maintain a constant dissolution volume.

The nature of data set [2]: Oral pharmacokinetics study. In kind it is in vivo, Sprague–Dawley (SD) rats. Conditions: SD rats, oral gavage 100 mg/kg. The procedure:
The mice were maintained under a specific pathogen-free (SPF) environment with a 12 h light/dark cycle. SD rats (body weight 200 ± 20 g) were fasted overnight and divided into two groups. Raw IMB16-4 and IMB16-4-MSNs were given orally by gavages at a dose of 100 mg/kg, respectively. Before administering, both IMB16-4-MSNs and raw IMB16-4 were dispersed in 0.5% CMC-Na aqueous solution, respectively. Blood samples were collected from the eye socket vein at time points of 0.17, 0.5, 1, 2, 3, 4, 6, 8 and 12 h after dosing. Plasma samples were collected by centrifuging at 3000 rpm for 10 min and were then stored at −20 °C until analysis. Plasma samples were mixed with internal standard (4′-Chloroacetanilide) acetonitrile solution. Then, the mixture was vortex-mixed for 10 s. After centrifugation at 15,000 rpm for 10 min, the supernatant was used for HPLC-MS/MS analysis (AB SCIEX 6500 Qtrap, USA). The condition of the capillary voltage was −4500 V. The temperature was 500 °C. The mobile phase comprised acetonitrile and 10 mM of ammonium acetate aqueous solution. Analysis was carried out on an Xselect HSS T3 column (2.1 × 100 mm, 2.5 μm, Waters) in gradient elution. The column temperature was 40 °C and the flow rate was 0.3 mL/min. The standard curve for IMB16-4 was the linear (R^2 > 0.992) over the concentration range of 4~2048 ng/mL. The quantitative ion pairs of IMB16-4 and internal standard quantitative were m/z = 500.0/195.7 and m/z = 168.0/126.1, respectively. The pharmacokinetic parameters were obtained using statistic software DAS2.0.

The nature of data set [3]: Equilibrium concentration (solubility) study in water. The class given is physicochemical. As to conditions: distilled water; raw IMB16-4 in water, 25 ± 2 °C, equilibrium about 24 h. The procedure:
An excess amount of raw IMB16-4 was added into 5 mL of distilled water at 25 ± 2 °C. The raw IMB16-4 solution at equilibrium time (about 24 h) was withdrawn and filtered using a 0.22 μm membrane. The subsequent filtrate was diluted with internal standard (4′-Chloroacetanilide) acetonitrile solution and analyzed by HPLC-MS/MS analysis (Thermo LTQ XL, USA). The standard curve for IMB16-4 was the linear (R^2 > 0.992) over the concentration range of 0.3~1200.0 ng/mL. The quantitative ion pair of IMB16-4 and internal standard quantitative were m/z = 499.9/196.0 and m/z = 168.04/126.1, respectively.

For data set [4], the system named is α-SMA, TGF-β1 and MMP2 protein levels in LX-2 cells. Description: In vitro antifibrotic effects, Western blot of hepatic fibrogenic markers after TGFβ1 stimulation. The class given is cell-based, human. Conditions: IMB16-4 2 µM, TGFβ1 2 ng/mL, 24 h. The procedure: After ultraviolet sterilization, raw IMB16-4, IMB16-4-MSNs and MSNs were suspended in water, respectively. Another group of raw IMB16-4 was suspended in DMSO. The concentration of IMB16-4 was 2 mM. Then, 2µL of solution containing IMB16-4 was added into 2 mL of serum-free culture with TGFβ1. LX-2 cells were cultured as described above. LX-2 cells were seeded in a 6-well plate, cultured in DMEM/GlutaMAX I, containing 10% fetal bovine serum (FBS) in 5% CO2 atmosphere at 37 °C. Serum-free culture was replaced until the cells reached 90 ≈ 95% confluence. After 24 h, cells were treated with TGFβ1 (2 ng/mL) and IMB16-4 (2 µM) for 24 h. Then, cells were washed with phosphate buffer saline (PBS) and protein was extracted in radio-immunoprecipitation assay (RIPA) buffer. Then mixture was centrifuged at 12,000 rpm at 4 °C for 20 min. The supernatant was collected, and the total protein was determined using the bicinchoninic acid (BCA) protein assay kit (Beyotime Biotechnology, China). Samples were applied to the 10% SDS-PAGE gel. Then, the protein bands were transferred to a polyvinylidene difluoride (PVDF) membrane (Millipore Corp, Atlanta, GA, USA) and the membrane was blocked for 1 h with 5% nonfat milk. […] The protein bands were analyzed on an imager (Tanon5200, China).
(In general: Immunoblotting shows a protein as a band on a membrane.)

For the next data set, the system named is NAFLD model rats. Details: method as in PMID 23752471, PMID 30573812. Conditions: NAFLD model rats ref 18, 19; cited from earlier work.

Consider `O=C(Nc1cc(Cl)c(Cl)c(Cl)c1)c1ccccc1NS(=O)(=O)c1cccc([N+](=O)[O-])c1` [IMB16-4, N-(3,4,5-trichlorophenyl)-2(3-nitrobenzenesulfonamido) benzamide], for which the “amount of dissolved IMB16-4” value in data set [1] is “about 40%”. The CLz/F in data set [2] was 54.70 ± 23.57. In data set [2] (Sprague-Dawley, rat, plasma), the Tmax (commonly the time from dosing to the highest level) was found to be 3.43 ± 1.4 h. Besides, the concentration in data set [2] (Sprague-Dawley, rat, plasma, in 0.5% CMC-Na) peaked (Cmax) at 180 ± 40 ng/mL. The AUC in data set [2] (Sprague-Dawley, rat, plasma, read-out: AUC0≈12 h) was 1240 ± 310 ng·h/mL. In addition, the MRT in data set [2] (Sprague-Dawley, rat, plasma, read-out: MRT0≈12 h) is 5.18 ± 0.77 h. Moreover, in data set [3], the solubility (commonly the dissolved amount per volume that the medium holds) is 0.0432 ± 0.0091 µg/mL (≈ 0.0863 µM). Also, the “protein levels of α-SMA, TGF-β1 and MMP2 (antifibrotic effect)” value is recorded as “showed potential anti-liver fibrosis effects. However, the differences are not significant” in data set [4] (dissolved by DMSO) and “poor inhibition effect” in data set [4] (suspended in sterile water).
Turning to “N-(3,4-dichlorophenyl)-2-(3-trifluoromethoxy) benzamide [IMB17-15]”, the hepatoprotective effects result in the data set on NAFLD model rats was “has hepatoprotective effects”.
